This is an account of results in publication PMC10343724, “Evaluation of Antimicrobial, Anticholinesterase Potential of Indole Derivatives and Unexpectedly Synthesized Novel Benzodiazine: Characterization, DFT and Hirshfeld Charge Analysis” (Molecules, 2023).

For series [1], the system named is antibiotic-resistant strains of Staphylococcus aureus. In words: Disc diffusion assay, antibacterial activity. Type of series: cell-based. As to conditions: clinically isolated antibiotic-resistant S. aureus. The method, then: (§1) Disc diffusion assay was performed to evaluate the antibacterial potential of compounds (8, 9, 10 and 12) against antibiotic-resistant strains of Salmonella Typhi and Staphylococcus aureus. […] Heterocyclic compounds are well-known for their antibacterial potential. A series of Benzoxazepine derivatives have shown promising antibacterial activities against Staphylococcus sciuri (zone of inhibition as 8–21 mm) and E. coli (zone of inhibition as 8–14 mm). Isoxazolyl benzo [1, 4]diazepine-5-ones have shown antibacterial against both G + ve (B. subtilis, B. sphaericus, S.aureus) and G-ve bacteria (P. aeruginosa, K. aerogenes, C. violaceum).
(§2) Antibacterial activity was assessed against clinically isolated, antibiotic-resistant strains of Salmonella typhi and Staphylococcus aureus using Disk diffusion assay, as previously described. Anticholinesterase activity was also performed, as described earlier for indoles.
On the technique in general: Agar diffusion results depend on both activity and mobility in agar.

The target of another series is acetylcholinesterase (Homo sapiens, UniProt P22303). The series is described as follows: biochemical. As to conditions: apparent value; due to solubility issues the IC50 values can be far less; read-out: IC50, acetylcholinesterase inhibition. The procedure:
(§3) Azine derivatives, benzoxazepines and benzodiazepines show various biological activities, including antibacterial, antifungal, and anticholinesterase activities. This makes benzo-diazine an excellent candidate for exploration of its potential for cholinesterase inhibition and antimicrobial activities.
as §2

A short description of series [2]: Solubility behaviour in the anticholinesterase reaction mixture. In kind it is physicochemical. As to conditions: anticholinesterase assay reaction mixture.
From the text: as §3

The test system of series [3] is antibiotic-resistant strains of Salmonella Typhi. The series is described as follows: Disc diffusion assay, antibacterial activity. Type of series: cell-based. As to conditions: clinically isolated antibiotic-resistant S. Typhi. The method, then:
as §1, §2

Molecules are shown by their SMILES.

Sequence of acetylcholinesterase (P22303 32-614): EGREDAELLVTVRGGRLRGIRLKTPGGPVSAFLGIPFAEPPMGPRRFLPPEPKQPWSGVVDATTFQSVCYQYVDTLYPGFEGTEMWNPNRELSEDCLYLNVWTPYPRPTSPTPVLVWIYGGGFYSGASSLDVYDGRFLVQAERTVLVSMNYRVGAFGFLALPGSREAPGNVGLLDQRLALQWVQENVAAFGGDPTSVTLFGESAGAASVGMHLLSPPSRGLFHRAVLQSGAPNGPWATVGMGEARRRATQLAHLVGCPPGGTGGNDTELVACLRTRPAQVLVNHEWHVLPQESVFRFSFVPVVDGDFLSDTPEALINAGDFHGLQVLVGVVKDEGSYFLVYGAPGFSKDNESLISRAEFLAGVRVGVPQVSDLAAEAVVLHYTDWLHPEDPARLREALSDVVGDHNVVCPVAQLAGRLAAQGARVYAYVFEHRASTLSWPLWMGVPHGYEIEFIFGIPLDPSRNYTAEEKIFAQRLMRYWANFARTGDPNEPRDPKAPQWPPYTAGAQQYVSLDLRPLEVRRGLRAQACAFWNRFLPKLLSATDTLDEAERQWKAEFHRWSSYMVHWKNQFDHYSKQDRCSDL

In general, IC50 refers to the midpoint of a concentration-inhibition curve. Take `COc1cc(OC)c2c(-c3ccccc3)c(-c3ccccc3)[nH]c2c1C(=O)C(Cl)(Cl)Cl` [Compound 8, 7-Trichloro-acetyl-4,6-Dimethoxy-2,3-Diphenyl-1H-Indole]: the “zone of inhibition (ZOI)” value in series [1] was ~ 18 mm. At acetylcholinesterase, the IC50 was 7.31 µM.
As to `COc1cc(OC)c2c(-c3ccccc3)c(-c3ccccc3)[nH]c2c1C(=O)O` [Compound 9, 4,6-Dimethoxy-2,3-Diphenylindole-7-Carboxylic Acid], in series [1], the “zone of inhibition (ZOI)” value was approximately 21 mm. For the same molecule, the “precipitation in the reaction mixture” value in series [2] is given as “precipitated even at lower concentrations”.
`COc1cc(OC)c2c(-c3ccccc3)c(-c3ccccc3)[nH]c2c1C(N)=O` [Compound 10, 4,6-Dimethoxy-2,3-Diphenyl-1H-Indole-7-Carboxamide]: in series [1], the “zone of inhibition (ZOI)” value was approximately 17 mm.
Regarding `COC(=O)C(C)Oc1nc(-c2ccccc2)nc2c(C(=O)c3ccccc3)c(OC)cc(OC)c12` (stereo not drawn) [Compound 12, 8-Benzoyl-5,7-Dimethoxy-4-(1‴-Methyoxycarbonylethoxy)-2-Phenyl-1,3-Benzodiazine], the figures for the “zone of inhibition (ZOI)” value in series [3] and in series [1] were ~ 13 mm and approximately 20 mm, respectively. Also, the “precipitation in the reaction mixture” value in series [2] is recorded as “precipitated even at lower concentrations”. The IC50 at acetylcholinesterase is 6.11 µM.
